Measurements: paper PMC12410356 (International Journal for Parasitology: Drugs and Drug …, 2025)

Experiments:
[1] = tested on: E. multilocularis metacestode vesicles; assay: Phosphoglucose isomerase (PGI) release assay (damage-marker release) on metacestode vesicles; format: cell-based, Echinococcus multilocularis; conditions: 10 μM; for PGI d5 (relative PGI release): 5 days; for PGI d12 (relative PGI release): 12 days
[2] = tested on: E. multilocularis metacestode vesicles; assay: Metacestode vesicle viability assay (ATP, CellTiter-Glo); format: cell-based, Echinococcus multilocularis
Protocol: Viability was assessed after 12 days using the same metacestode vesicles as for the PGI release assay. Triton X-100 was added to each well to a final concentration of 0.1 %. Subsequently the metacestode vesicles were broken mechanically and 50 μL of the supernatant was mixed with 50 μL of CellTiter-Glo® buffer (Promega, Dübendorf, Switzerland). Measurements were performed on a HIDEX Sense microplate reader.

[3] = overview screen, singlets, relative to 0.1 % Triton X-100, DMSO subtracted
[4] = overview screen, 10 μM, singlets, 12 days, relative to DMSO control
[5] = confirmation screen, triplicates, mean
[6] = confirmation screen, 10 μM, triplicates, mean, 12 days

Structure (SMILES)	PGI d5 (relative PGI release) [1, 3] [%]	PGI d12 (relative PGI release) [1, 3] [%]	Viability d12 (relative viability) [2, 4] [%]	Viability d12 (relative viability) ([2]; 10 µM) [%]	PGI d5 (relative PGI release) [1, 5] [%]	PGI d12 (relative PGI release) [1, 5] [%]	Viability d12 (relative viability) [2, 6] [%]
CC(C)(C)NC(=O)[C@@H]1CN(Cc2cnc3occc3c2)CCN1C[C@@H](O)C[C@@H](Cc1ccccc1)C(=O)N[C@H]1c2ccccc2C[C@H]1O [MMV1782353]	0.2673	-0.3369	92.6641				
Cc1cc(C)n2nc(C(=O)NS(=O)(=O)c3c(C)cccc3OC(F)(F)F)nc2n1 [MMV1782402]	-1.59	1.998	179.119				
COc1ccc(-n2cnc3cc(NCc4ccco4)ccc32)cc1 [MMV617332]	0.2921	-0.1496	117.278				
CCCCCCC1c2ccc(O)cc2Oc2cc(O)ccc21 [MMV1593535]	1.318	-18.7037	92.5147				
COC(=O)Nc1nc2cc(Sc3ccccc3)ccc2[nH]1 [MMV003143]	2.636	9.38	13.6935				
Nc1nc(F)nc2c1ncn2[C@@H]1O[C@H](CO)[C@@H](O)[C@@H]1O [MMV637413]	-0.694	1.228	168.919				
Cc1nc(Nc2ccc(F)cc2)nc(N2CCc3ccccc3C2C)c1C (stereo not drawn) [MMV030787]	-1.879	-7.918	56.6945				
[N-]=[N+]=N[C@H]1C[C@H](n2ccc(=O)[nH]c2=O)O[C@@H]1CO [MMV1593520]	0.5917	-8.089	90.373				
CCCC1(C2CC2)c2cc(Cl)ccc2NC(=O)N1C (stereo not drawn) [MMV1782113]	0.2859	0.236	107.305				
NCc1ccc(S(N)(=O)=O)cc1 [MMV002665]	0.8805	-5.499		140.59			
CCc1ccc(C2CC(C(F)(F)F)n3ncc(C(=O)NCc4ccc(OC)cc4)c3N2)cc1 (stereo not drawn) [MMV831201]	-0.786	-0.2956	124.843				
c1ccc(-c2nnc3c4ccccc4c(N4CCNCC4)nn23)cc1 [MMV1581551]	-2.787	-25.7664	63.6248				
C[C@H]1CC[C@@]2(O)C(C)(C)[C@@H]3CC[C@@]2(C)[C@H]1C3 [MMV1578556]	-0.5138	-7.5984	153.384				
COc1ccc(C2CNC(=O)C2)cc1OC1CCCC1 (stereo not drawn) [MMV003738]	-0.5058	-19.6179	180.575				
O=C(NCc1ccc2c3c(cccc13)C(=O)N2)c1cccs1 [MMV1341773]	-1.3816	-12.533	18.2024				
Nc1cc(-c2nc3ccccc3[nH]2)n[nH]c1=O [MMV975972]	0.8096	-4.832	175.408				
CCC[C@H](NC(=O)[C@@H]1[C@H]2CCC[C@H]2CN1C(=O)[C@@H](NC(=O)[C@@H](NC(=O)c1cnccn1)C1CCCCC1)C(C)(C)C)C(=O)C(=O)NC1CC1 [MMV1580494]	0.1247	-0.8271	83.9614				
CC(C)N=c1cc2n(-c3ccc(Cl)cc3)c3ccccc3nc-2cc1Nc1ccc(Cl)cc1 [MMV687800]	10.9227	104.553	4.175		0.81	1.29	142.49
Cc1cc(CCCOc2c(C)cc(-c3noc(C(F)(F)F)n3)cc2C)on1 [MMV690467]	0.4162	0.2856	74.4224				
CCOc1ccc(/C=N/NC(=O)C2CC2c2ccc(C(C)(C)C)cc2)cc1OCC (stereo not drawn) [MMV1634398]	0.06885	0.3627	324.092				
CC(Cc1ccccc1)C(=O)Nc1ccc(Cl)cc1C(=O)O (stereo not drawn) [MMV1579781]	-1.72	1.6268	82.6324				

Structure (SMILES)	PGI d5 (relative PGI release) [1, 3] [%]	PGI d12 (relative PGI release) [1, 3] [%]	Viability d12 (relative viability) [2, 4] [%]	Viability d12 (relative viability) ([2]; 10 µM) [%]	PGI d5 (relative PGI release) [1, 5] [%]	PGI d12 (relative PGI release) [1, 5] [%]	Viability d12 (relative viability) [2, 6] [%]
CO/N=C(\C(=O)N[C@@H]1C(=O)N2C(C(=O)OCOC(=O)C(C)(C)C)=C(/C=C\c3scnc3C)CS[C@H]12)c1csc(N)n1 [MMV002560]	-2.539	-11.7788	19.8723				
CC(C)n1cnc2c(NCc3ccccc3)nc(NCc3ccccc3)nc21 [MMV1579780]	13.6684	58.0803	34.6202				
NC(=O)c1[nH]c2ccc(S(N)(=O)=O)cc2c1-c1ccccc1 [MMV1581556]	1.2	0.8963	154.578				
O=c1[nH]c(=O)n(Cc2cccc(Oc3ccccc3)c2)cc1Nc1ccccc1 [MMV1782107]	0.6712	-19.0475	211.334				
CCOC(=O)/C=C/[C@H](C[C@@H]1CCNC1=O)NC(=O)[C@H](CC)n1cccc(NC(=O)c2cc(C)on2)c1=O [MMV1782112]	0.1675	-19.6518	109.382				
CC[C@H]1OC(=O)[C@H](C)[C@@H](O[C@H]2C[C@@](C)(OC)[C@@H](O)[C@H](C)O2)[C@H](C)[C@@H](O[C@@H]2O[C@H](C)C[C@H](N(C)C)[C@H]2O)[C@](C)(O)C[C@@H](C)C(=O)[C@H](C)[C@@H](O)[C@]1(C)O [MMV003137]	1.971	-21.4001	63.8752				
O=c1[nH]cnc2c1ncn2[C@H]1CC[C@@H](CO)O1 [MMV637306]	-0.8027	5.98		229.844			
O=C(Nc1ccc(-c2ccccc2)cc1)C1=C(O)C(Cc2ccccc2)OC1=O (stereo not drawn) [MMV1593531]	4.793	88.1717	16.5533		0.17	1.55	49.52
Cc1ccc(S(=O)(=O)Nc2cccc3cccnc23)cc1 [MMV233495]	2.157	26.0665	70.919				
Cl.NC1(C(=O)O)CCP(=O)(O)CC1 (stereo not drawn) [MMV1593538]	-1.639	-13.1352	39.7446				
Cc1oncc1C(=O)Nc1ccc(C(F)(F)F)cc1 [MMV003291]	0.3849	-17.479		99.9529			
CCCCCCCc1[nH]c2ccccc2c(=O)c1O [MMV1578561]	-1.205	-12.6441	124.494				
NC(=O)c1c(N)sc2c1CCCCC2 [MMV056052]	0.2417	3.2439	78.9817				
COc1cc(NC(=O)CN2C(=O)NC(c3ccccc3)(c3ccccc3)C2=O)cc(OC)c1 [MMV1578572]	-1.463	-23.3736	61.4538				
O=C(O)c1ccc(-c2ccc(O[C@H]3O[C@H](CO)[C@@H](O)[C@H](O)[C@@H]3O)cc2)cc1 [MMV1633970]	0.1129	-1.296	109.047				
Fc1ccc(-c2nc(-c3c[nH]c4ccc(Br)cc34)[nH]c2-c2ccc(F)cc2)cc1 [MMV1593537]	27.6196	72.794	8.099		0.49	-0.0663	69.22
CC[C@@]1(O)C(=O)OCc2c1cc1n(c2=O)Cc2cc3c([N+](=O)[O-])cccc3nc2-1 [MMV1580796]	0.7883	-0.447	120.917				
Nc1ccc(-c2nc3cc(C(F)(F)F)ccc3n2C23CC4CC(CC(C4)C2)C3)cc1 [MMV1634385]	1.378	1.206	100.869				
O=C(O)c1sccc1S(=O)(=O)n1ccc2cc(Br)ccc21 [MMV1580855]	0.195	35.1913	69.7674				
O=C(NCc1cccc2ccccc12)c1cccs1 [MMV1579845]	-2.677	-26.5326	53.7721				
Nc1cccc(-c2nc(N)nc(NC3Cc4ccccc4C3)n2)c1 [MMV1581555]	2.438	-5.225	66.1297				
